Results from a melting point compilation (Tetko et al.; mined from patent text by program, amines drawn as free bases though some values may be those of a salt).

| Structure (SMILES) | melting point [°C] |
| --- | --- |
| Cn1ncc2c(C(F)F)cc(Cl)nc21 | 105 |
| CCOC(=O)C=Cc1ccc(OC)c2c1CC1(CCCC1)O2 | 81 to 91 |
| C[C@H]1CCCN(C(=O)[C@H]2Cc3cc(N4CCCCC4)ccc3N2c2cccnn2)C1 | 226 to 228 |
| O=C(O)C1=Cc2cc(Cl)cc(CO)c2OC1C(F)(F)F (stereo not drawn) | 175 to 179 |
| COC1OCC2C(O)C3CCCCC3CC12 (stereo not drawn) | 75 to 77 |
| Nc1c([N+](=O)[O-])cc(Br)c2c1CCN(Cc1ccc(C(F)(F)F)cc1)C2 | 131 to 133 |
| COc1ccc(OC(=O)[C@H](C)NC(=O)OCc2ccccc2)cc1 | 128 to 129 |
| CCOC(=O)c1c(C(F)(F)F)nc(C(F)F)c(C(=O)OC)c1NCC#N | 87 to 89 |
| CC(C)(N)CNC(=O)CNC(=O)CNC(=O)Cc1ccccc1 | 209 to 210 |
| O=S(=O)(c1ccccc1)C(CC(F)(F)F)c1ccc(C(O)(C(F)(F)F)C(F)(F)F)cc1 (stereo not drawn) | 151 |
| COc1ccc(CC(=O)NCCc2ccc3[nH]cc(CC#N)c3c2)cc1 | 155 to 156 |
| CC(C)(CCl)C(=O)N(O)Cc1ccccc1 | 90 to 92 |
| Clc1ccc(Nc2nnc(Cc3ccncc3)c3ccncc23)cc1 | 220 to 221 |
| COc1cc2c3c(sc2c(Cl)c1Cl)CCCC3 | 123 to 125 |
| Cn1cc(-c2c(-c3ccc(F)cc3)nn3ccncc23)ccc1=O | 222 to 223 |
| O=[N+]([O-])c1ccc(SCc2cnc3ccccn23)cc1 | 174 to 175 |
| CCN(C)C(=O)Nc1ccc2c(c1)C(c1ccccc1F)=NCC(=O)N2C | 165 to 168 |
| CC(C)(C)c1cc(-c2nn(CC(N)=O)c3ncccc23)cc(C(C)(C)C)c1O | 162 to 164 |
| COc1ccc(-c2cnc(N)c(Sc3ccccc3)n2)cc1 | 89 to 90 |
| C[C@H](NS(=O)(=O)c1ccc(-c2c(C#N)c3ccc(C4CC4)cc3n2-c2ncccn2)nc1)C(F)(F)F | 181 to 184 |
| CCCOc1ccc(S(=O)(=O)N2CCN(CCO)CC2)cc1C(=O)OC | 88 to 89 |
| O=C1NC(=O)C(Cc2ccc(OCCOc3ccccc3)cc2)S1 (stereo not drawn) | 133 |
| O=C(c1ccc(Cl)cc1)c1ccc([N+](=O)[O-])cc1Cl | 117 to 118 |
| CCCc1oc2ccc([N+](=O)[O-])cc2c1C(=O)c1ccc(O)cc1 | 119 |
| Cc1cc2c(c(C)c1NC(=O)OC(C)(C)C)CC(C)(C)O2 | 121 to 123 |
| CS(=O)(=O)NC(CCCCCc1ccc(Cl)cc1)C(=O)O (stereo not drawn) | 73 to 75 |

| Structure (SMILES) | melting point [°C] |
| --- | --- |
| COc1cc2c(=O)n(CCCO)c3c4ccccc4[nH]c(=O)c3c2cc1OC | 313 |
| CN=C(NC#N)Oc1ccccc1 | 132 to 133 |
| Cc1cccc(N2CCN(CCCCCC(=O)N3Cc4ccccc4C3)CC2)c1C#N | 126 |
| CCC(C)(Oc1ccc(OCc2cc(-c3ccc(O)cc3)no2)cc1)C(=O)O (stereo not drawn) | 142 to 144 |
| Cc1ccc2[nH]c(SCC(F)(F)F)nc2c1 | 159 to 161 |
| C=CCn1c(NC)n[nH]c1=S | 129 to 131 |
| COc1cccc2c1CCC=C2N1CCOCC1 | 80 to 90 |
| CCCS(=O)(=O)Nc1cc(OC[C@@H](O)CNC2CCN(c3ccc(C(=O)OCC)cc3)CC2)ccc1O | 63 to 65 |
| Nc1ccccc1C(=O)/C=C/c1nccn1C(c1ccccc1)(c1ccccc1)c1ccccc1 | 142 to 144 |
| O=S(=O)(NCCN1CCOCC1)C(F)(F)F | 106 to 108 |
| NS(=O)(=O)c1ccc(-c2cnn(CC(F)(F)F)c(=O)c2-c2ccc(Cl)c(F)c2)cc1 | 180 to 183 |
| CCC(CC)Sc1cc(S(N)(=O)=O)c(N)cc1Cl | 118 to 120 |
| CC(=O)CC(=O)N1CCc2cc(C(O)(C(F)(F)F)C(F)(F)F)ccc21 | 150 to 151 |
| Cc1cc(SCC#Cc2cccc(C(F)(F)F)c2)ccc1OCC(=O)O | 81 to 82 |
| O=C(O)CCCc1cc2nc(Cl)ccc2n1S(=O)(=O)c1ccc(-c2cccnc2)cc1 | 141 |
| CN(C)c1ccc(CC(OCC(O)CN2CCCCC2)C(=O)c2ccccc2)cc1 (stereo not drawn) | 113 to 115 |
| C=CCC(C(=O)O)c1ccccc1 (stereo not drawn) | 34 |
| Cc1cc(C(N)=O)ncc1C(c1c(F)ccc(F)c1F)S(=O)(=O)CC1CC(F)(F)C1 (stereo not drawn) | 205 to 207 |
| CCCCCC(=NOC)c1cc(C#N)c(=O)[nH]c1C | 159 to 165 |
| Cc1ccc(OCc2ccccc2)cc1NCc1ccccc1 | 66 to 67 |
| Nc1cccc2c(=O)[nH]sc12 | 161 to 165 |
| COc1ccc([N+](=O)[O-])c(NC(C)=O)c1 | 129 |
| Nc1ccccc1Sc1ccc([N+](=O)[O-])cc1[N+](=O)[O-] | 151 to 152 |
| O=C1Cc2cc(F)c(F)cc2N1 | 187 to 190 |
| CCCCCCCCCCCCSCCCN(CCO)CCO | 53 to 54 |
| COC(=O)C(c1ccccc1)N1CCC(c2ccc(NC(=O)c3ccccc3-c3ccc(C(F)(F)F)cc3)cc2)CC1 (stereo not drawn) | 138 |

| Structure (SMILES) | melting point [°C] |
| --- | --- |
| COc1cc2c(cc1Cl)C(O)(c1ccccc1Cl)C(=O)N2 (stereo not drawn) | 237 to 240 |
| O=C1CCC(=O)N1Cc1nc2sc3c(c2c(-c2ccc(O)cc2)c1Cl)CCS(=O)C3 (stereo not drawn) | 274 to 276 |
| CC1(C)OC(C=Cc2ccoc2)=CC1=O | 79 to 80 |
| CC(=O)Nc1c(C(=O)c2ccccc2)[nH]c2ccc(NS(C)(=O)=O)cc12 | 260 to 261 |
| CCCc1c(OCCCOc2ccc(C(=O)O)cc2Br)ccc(C(C)=O)c1OC(C)=O | 125 to 127 |
| Cn1c(C(F)(F)F)cc(C#N)c1-c1ccc(Cl)cc1 | 130 |
| O=C1NC(=O)C(Nc2cccc(-c3ccc(OCc4ccc5ccccc5n4)cc3)c2)S1 (stereo not drawn) | 132 to 133 |
| COc1cc2c3ccc(OC)c(OC)c3n(C(=O)CCc3ccccc3)c2cc1OC | 106 to 108 |
| COc1ccc(S(=O)(=O)C(C(=O)NO)C(C)C)cc1 (stereo not drawn) | 220 |
| CN(CCO)C(=O)c1cc2ccccc2[nH]1 | 141 to 142 |
| O=C(O)C=C1SC(=Nc2cccc3ccccc23)N(c2cccc3ccccc23)C1=O | 250 to 253 |
| CCCc1c(OCCCCc2nnn[nH]2)ccc(C(C)=O)c1O | 114 to 115 |
| COC(=O)C1=C(C)NC(CO)=C(C(=O)OC)C1c1ccccc1[N+](=O)[O-] (stereo not drawn) | 164 to 165 |
| COc1cc(N)c(Cl)cc1C(=O)NCC1CCN(CCCCC(=O)c2ccccc2)CC1 | 100 to 102 |
| Cc1cc(Nc2ccn(-c3ccccc3)n2)cc(C)c1OC(=O)CC#N | 116 to 117 |
| Cc1ccc2c(c1)N(CC(=O)c1ccccc1C)C(=O)C(NC(=O)Nc1cccc(C(=O)O)c1)CN2C(=O)c1ccco1 (stereo not drawn) | 219 to 221 |
| CCCn1cc(Cc2ccc(C(=O)OC)cc2OC)c2cc(C=O)ccc21 | 99 to 100 |
| BrC(Br)(Br)c1nc2ccccc2s1 | 79 to 80 |
| CCCC1COC(Cn2cncn2)(c2ccc(Oc3ccccc3)cc2)O1 (stereo not drawn) | 68.5 to 71 |
| N=C(Nc1ccc(C(F)(F)F)cc1)Nc1ncccc1OCc1ccccc1 | 154 to 155 |
| OC1CCN(c2ncc(-c3ccc(Cl)cc3Cl)cn2)CC1 | 122 to 124 |
| Cc1c(N=C2NCCO2)cccc1NS(C)(=O)=O | 124 to 140 |
| CC1(C)OC(=O)Nc2ccc(-c3cccc(F)c3)cc21 | 181 to 182 |
| O=[N+]([O-])c1ccc(SCc2c[nH]cn2)nc1 | 155 to 156 |
| COc1ccc(-c2sc3c(c2C)c(=O)c(CO)cn3Cc2ccccc2F)cc1 | 159 to 160 |
| CCOC(=O)c1cnn(-c2ccc(OCC(C)(C)COC(=O)c3ccccc3)c(C#N)c2)c1 | 112 to 114 |

| Structure (SMILES) | melting point [°C] |
| --- | --- |
| O=P1(O)OCc2ccccc21 | 167 |
| CC(C)c1csc(/C=C/c2cc(NC(=O)Cc3ccccc3C(=O)O)ccc2Cl)n1 | 204 to 206 |
| COC(=O)CCC(=O)c1ccc(SC(=O)N(C)C)cc1 | 98 to 100 |
| O=C(Nc1ccc(C(F)(F)F)nc1C1CCN(CC=Cc2ccc(Cl)cc2)CC1)c1ccnc(Cl)c1 | 134 to 135 |
| CCNC(=S)Nc1nccs1 | 135 to 136 |
| CSc1ccc(-c2cc3ncnc(Nc4ccc5[nH]ccc5c4)c3s2)cc1 | 163 to 178 |
| O=C(O)Cc1c(C(=O)c2ccc(F)cc2)[nH]c2cc(Cl)ccc12 | 181 to 183 |
| COC(=O)NNC(=O)Nc1cccc2c1C(=O)c1c-2n[nH]c1-c1ccc(OC)cc1 | > 300 |
| COc1ccc([C@H]2N[C@H](c3ccc4c(c3)OCO4)c3ccccc32)cc1 (racemic) | 123 to 125 |
| CC(=O)c1cc(C(N)=O)c(=O)[nH]c1C | > 320 |
| CC(C)OC12NC(=O)C(C)(C(C)C)N1C(=O)c1cccnc12 (stereo not drawn) | 158 to 160 |
| COc1ccc(-c2nc3nccnc3[nH]2)c(OCC#N)c1 | 232 to 233 |
| O=C1NCCN1c1ccc(S(=O)(=O)Nc2ccccc2)cc1 | 262 to 264 |
| CCOC(C)OC(CCOc1ccc([N+](=O)[O-])cc1)C(F)(F)F (stereo not drawn) | 81 |
| CC1Cc2c(N3CCC(NC(=O)OC(C)(C)C)C3)c(F)cc3c(=O)[nH]c(=O)n1c23 (stereo not drawn) | 203 to 205 |
| CCOC(=O)Cn1nnc(-c2cccc(OCc3ccc4ccccc4n3)c2)n1 | 111 to 113 |
| CCOC(=O)NC1(c2cccs2)CCC2(CC1)OCCO2 | 113 to 117 |
| CS(=O)(=O)c1ccc(C2=C(c3ccccc3)C(=O)C2)cc1 | 139 to 140 |
| CC(C)(C)c1cc(C(=O)c2nccs2)cc2c1OCC2(C)C | 101 to 103 |
| CC(=O)NC[C@H]1CN(c2ccc(N3CCC(O)CC3)cc2)C(=O)O1 | 64 to 66 |
| O=c1[nH]c(=O)n(Cc2cccc(OCc3noc(-c4ccc(C(F)(F)F)cc4)n3)c2)o1 | 90 to 91 |
| COC(=O)c1ccccc1S(=O)(=O)Nn1cnn(-c2nc(OC)cc(OC)n2)c1=O | 192 |
| N#CC1=Nc2ccc(Cl)cc2Oc2ccccc21 | 185 to 188 |
| CC(C)(C)C(O)C(=O)CCn1cncn1 (stereo not drawn) | 80 to 83 |
| CC(C)(CO)COc1c(-c2ccc(S(C)(=O)=O)cc2)cnn(-c2ccc(F)c(F)c2)c1=O | 161 to 162 |
